The values that follow come from patent US11207296B2, “XPA inhibitor compounds and their use” (INDIANA UNIVERSITY RESEARCH AND TECHNOLOGY CORPORATION, priority 2017, dated 2021).

Several values for one entry are separate records, joined by “and”; a condition that tells them apart may be missing. Equal entries are not always repeated.
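Note: XPA expressed in Sf9 cells, preincubated with compound on ice before adding DNA, complex resolved on native polyacrylamide gel at 4 °C, PhosphorImager band intensity, binding inhibition versus DMSO.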

The target in the test is full length XPA protein (Homo sapiens, UniProt P23025). Nature of the test: biochemical. Particulars: IC50 (μM), EMSA, 32P labeled 30 bp duplex DNA containing a single 1,2 dGpG cisplatin adduct, several values in a cell = separate determinations.
full length XPA protein, sequence (P23025 whole entry): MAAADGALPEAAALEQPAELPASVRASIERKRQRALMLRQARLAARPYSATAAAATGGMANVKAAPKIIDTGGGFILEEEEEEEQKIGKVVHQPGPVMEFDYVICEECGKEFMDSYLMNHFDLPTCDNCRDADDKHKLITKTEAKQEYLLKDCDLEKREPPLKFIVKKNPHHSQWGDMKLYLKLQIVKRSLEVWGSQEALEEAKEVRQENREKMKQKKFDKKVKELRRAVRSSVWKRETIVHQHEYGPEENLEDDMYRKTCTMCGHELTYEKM
Method: Purified XPA (lanes 2-18) was mixed with DMSO (Lane 2, C) control or the indicated compound at a concentration of 50 μM (Lanes 3-18). ^32P labeled ds-platinum damaged DNA was added and incubation continued for 30 minutes on ice. The products were separated on a 6% native gel by electrophoresis at 4° C. Products were detected and quantified by PhosphorImager analysis.
EMSA was carried out using previously described procedure with the following modification. Reactions were performed in volume of 20 μL, containing a ^32P labeled 30 bp duplex DNA containing a single 1,2 dGpG cisplatin adduct. Compounds were pre-incubated on ice with the indicated amount of XPA and products separated by electrophoresis on a non-denaturing 6% polyacrylamide gel. Gels were cooled, loaded and electrophoresis performed at 4° C. Gels were used to expose a Phosphorlmager screen and band intensity determined and % binding and inhibition calculated as we have previously described.
`CC1=NN(c2ccc(C(=O)O)cc2)C(=O)C1Cc1ccc(-c2ccc(Cl)c(C(=O)NCc3ccc(F)cc3)c2)o1` (stereo not shown) [NG-02-151, 4-(4-((5-(4-Chloro-3-((4-fluorobenzyl)carbamoyl)phenyl)furan-2-yl)methyl)-3-methyl-5-oxo-4,5-dihydro-1H-pyrazol-1-yl)benzoic acid]: the concentration for half-maximal inhibition (IC50) is 15 µM and 35 µM.

The molecule `COc1cccc(NC(=O)c2cc(-c3ccc(/C=C4\C(=O)N(c5ccc(C(=O)O)cc5)N=C4C)s3)ccc2Cl)c1` [NG-03-236, (Z)-4-(4-((5-(4-Chloro-3-((3-methoxyphenyl)carbamoyl)phenyl)thiophen-2-yl)methylene)-3-methyl-5-oxo-4,5-dihydro-1H-pyrazol-1-yl)benzoic acid] displayed an IC50 of 12 µM. The molecule `COc1ccc(NC(=O)c2cc(-c3ccc(CC4C(=O)N(c5cccc(C(=O)O)c5)N=C4C)o3)ccc2Cl)cc1OC` (stereo not shown) [NG-03-206, 3-(4-((5-(4-Chloro-3-((3,4-dimethoxyphenyl)carbamoyl)phenyl)furan-2-yl)methyl)-3-methyl-5-oxo-4,5-dihydro-1H-pyrazol-1-yl)benzoic acid] gave an IC50 of 11 µM. Next, `COc1cccc(NC(=O)c2cc(-c3ccc(CC4C(=O)N(c5ccc(C(=O)O)cc5)N=C4C)s3)ccc2Cl)c1` (stereo not shown) [NG-03-238, 4-(4-((5-(4-Chloro-3-((3-methoxyphenyl)carbamoyl)phenyl)thiophen-2-yl)methyl)-3-methyl-5-oxo-4,5-dihydro-1H-pyrazol-1-yl)benzoic acid]: 45 µM; `COc1cccc(CNC(=O)c2cc(-c3ccc(CC4C(=O)N(c5ccc(C(=O)O)cc5)N=C4C)o3)ccc2Cl)c1` (stereo not shown) [NG-04-294, 4-(4-((5-(4-chloro-3-((3-methoxybenzyl)carbamoyl)phenyl)furan-2-yl)methyl)-3-methyl-5-oxo-4,5-dihydro-1H-pyrazol-1-yl)benzoic acid]: 40 µM. The value for `C=CCCCc1cccc(-c2ccc(/C=C3/C=NN(c4cccc(C(=O)O)c4)C3=O)o2)c1` [Compound 2922] was 3 µM. Next, `CC1=NN(c2cccc(C(=O)O)c2)C(=O)C1Cc1ccc(-c2ccc(Cl)c(C(=O)NCc3ccc(F)cc3)c2)o1` (stereo not shown) [NG-01-65, 3-(4-((5-(4-Chloro-3-((4-fluorobenzyl)carbamoyl)phenyl)furan-2-yl)methyl)-3-methyl-5-oxo-4,5-dihydro-1H-pyrazol-1-yl)benzoic acid]: above 25 µM; `CCOC(=O)c1cccc(N2N=C(C(F)(F)F)/C(=C/c3ccc(-c4ccc(Cl)c(C(=O)O)c4)o3)C2=O)c1` [NG-04-300, 2-chloro-5-(5-((1-(3-(ethoxycarbonyl)phenyl)-5-oxo-3-(trifluoromethyl)-1,5-dihydro-4H-pyrazol-4-ylidene)methyl)furan-2-yl)benzoic acid]: 40 µM. For `COc1cccc(NC(=O)c2cc(-c3ccc(/C=C4\C(=O)N(c5cccc(C(=O)O)c5)N=C4C)s3)ccc2Cl)c1` [NG-03-203, (Z)-3-(4-((5-(4-chloro-3-((3-methoxyphenyl)carbamoyl)phenyl)thiophen-2-yl)methylene)-3-methyl-5-oxo-4,5-dihydro-1H-pyrazol-1-yl)benzoic acid], the IC50 was 3 µM and 7.5 µM and 11 µM. Molecule `CCOC(=O)c1cccc(N2N=C(C)C(=Cc3ccc(C(=O)O)o3)C2=O)c1` [NG-02-154, 5-((1-(3-(ethoxycarbonyl)phenyl)-3-methyl-5-oxo-1,5-dihydro-4H-pyrazol-4-ylidene)methyl)furan-2-carboxylic acid] showed an IC50 of 45 µM.

`CC1=NN(c2cccc(C(=O)O)c2)C(=O)/C1=C\c1ccc(-c2ccc(Cl)c(C(=O)NC3CCOCC3)c2)o1` [Compound 34g, (Z)-3-(4-((5-(4-Chloro-3-((tetrahydro-2H-pyran-4-yl)carbamoyl)phenyl)furan-2-yl)methylene)-3-methyl-5-oxo-4,5-dihydro-1H-pyrazol-1-yl)benzoic acid] came in with an IC50 of 40 µM. Next, `CCOC(=O)c1cccc(N2N=C(C)/C(=C/c3ccc(-c4ccc(Cl)c(C(=O)O)c4)o3)C2=O)c1` [Compound 31a, (Z)-2-Chloro-5-(5-((1-(3-(ethoxycarbonyl)phenyl)-3-methyl-5-oxo-1H-pyrazol-4(5H)-ylidene)methyl)furan-2-yl)benzoic acid]: above 25 µM. Next, `CC1=NN(c2cccc(C(=O)O)c2)C(=O)C1Cc1ccc(-c2ccc(Cl)c(C(=O)NCC3CC3)c2)s1` (stereo not shown) [NG-03-231, 3-(4-((5-(4-Chloro-3-((cyclopropylmethyl)carbamoyl)phenyl)thiophen-2-yl)methyl)-3-methyl-5-oxo-4,5-dihydro-1H-pyrazol-1-yl)benzoic acid]: 40 µM; `CC1=NN(c2ccc(C(=O)O)cc2)C(=O)/C1=C\c1ccc(-c2ccc(Cl)c(C(=O)O)c2)s1` [NG-03-234, (Z)-5-(5-((1-(4-Carboxyphenyl)-3-methyl-5-oxo-1,5-dihydro-4H-pyrazol-4-ylidene)methyl)thiophen-2-yl)-2-chlorobenzoic acid]: 12 µM; `O=C(O)c1cccc(N2N=C(C(F)(F)F)/C(=C/c3ccc(-c4ccc(Cl)c(C(=O)NCC5CC5)c4)o3)C2=O)c1` [NG-04-304, 3-(4-((5-(4-chloro-3-((cyclopropylmethyl)carbamoyl)phenyl)furan-2-yl)methylene)-5-oxo-3-(trifluoromethyl)-4,5-dihydro-1H-pyrazol-1-yl)benzoic acid]: above 50 µM. The value for `COc1cccc(NC(=O)c2cc(-c3ccc(/C=C4\C(=O)N(c5cccc(C#N)c5)N=C4C)o3)ccc2Cl)c1` [NG-03-193, (Z)-2-chloro-5-(5-((1-(3-cyanophenyl)-3-methyl-5-oxo-1,5-dihydro-4H-pyrazol-4-ylidene)methyl)furan-2-yl)-N-(3-methoxyphenyl)benzamide] was above 25 µM; that for `CC1=NN(c2cccc(C(=O)O)c2)C(=O)/C1=C\c1ccc(-c2ccc(Cl)c(C(=O)NCc3ccccc3)c2)o1` [NG-03-270, (Z)-3-(4-((5-(3-(Benzylcarbamoyl)-4-chlorophenyl)furan-2-yl)methylene)-3-methyl-5-oxo-4,5-dihydro-1H-pyrazol-1-yl)benzoic acid] was 36 µM. Take `O=C(O)c1cccc(N2N=C(C(F)(F)F)C(Cc3ccc(-c4ccc(Cl)c(C(=O)NCC5CC5)c4)o3)C2=O)c1` (stereo not shown) [NG-04-309, 3-(4-((5-(4-chloro-3-((cyclopropylmethyl)carbamoyl)phenyl)furan-2-yl)methyl)-5-oxo-3-(trifluoromethyl)-4,5-dihydro-1H-pyrazol-1-yl)benzoic acid]: the IC50 came to 40 µM. Next, `CC1=NN(c2cccc(C(=O)O)c2)C(=O)/C1=C\c1ccc(-c2ccc(Cl)c(C(=O)NCc3ccccc3Cl)c2)o1` [NG-03-271, (Z)-3-(4-((5-(4-chloro-3-((2-chlorobenzyl)carbamoyl)phenyl)furan-2-yl)methylene)-3-methyl-5-oxo-4,5-dihydro-1H-pyrazol-1-yl)benzoic acid]: 40 µM; `CCOC(=O)c1cccc(N2N=C(C)/C(=C/c3ccc(-c4ccc(Cl)c(C(=O)NCc5ccc(F)cc5)c4)o3)C2=O)c1` [Compound 33a, (Z)-Ethyl 3-(4-((5-(4-chloro-3-((4-fluorobenzyl)carbamoyl)phenyl)furan-2-yl)methylene)-3-methyl-5-oxo-4,5-dihydro-1H-pyrazol-1-yl)benzoate]: above 25 µM. Next, `CC1=NN(c2cccc(C(=O)O)c2)C(=O)/C1=C\c1ccc(-c2ccc(Cl)c(C(=O)NCc3ccc(F)cc3)c2)s1` [NG-03-227, (Z)-3-(4-((5-(4-Chloro-3-((4-fluorobenzyl)carbamoyl)phenyl)thiophen-2-yl)methylene)-3-methyl-5-oxo-4,5-dihydro-1H-pyrazol-1-yl)benzoic acid]: 7 µM. As to `CC1=NN(c2cccc(C(=O)O)c2)C(=O)C1=Cc1ccc(-c2ccc(Cl)c(C(=O)NCC3CCCCC3)c2)o1` (mixture of isomers) [NG-04-274, 3-(4-((5-(4-chloro-3-((cyclohexylmethyl)carbamoyl)phenyl)furan-2-yl)methylene)-3-methyl-5-oxo-4,5-dihydro-1H-pyrazol-1-yl)benzoic acid], the IC50 came out at 35 µM. Next, `COc1cccc(NC(=O)c2cc(-c3ccc(CC4C(=O)N(c5cccc(C(=O)O)c5)N=C4C)s3)ccc2Cl)c1` (stereo not shown) [NG-03-207, 3-(4-((5-(4-chloro-3-((3-Methoxyphenyl)carbamoyl)phenyl)thiophen-2-yl)methyl)-3-methyl-5-oxo-4,5-dihydro-1H-pyrazol-1-yl)benzoic acid]: 12.5 µM; `CC1=NN(c2cccc(C(=O)O)c2)C(=O)/C1=C\c1ccc(-c2cccc(C(=O)OC(C)C)c2)o1` [Compound 3125]: 3 µM; `CC1=NN(c2cccc(C(=O)O)c2)C(=O)C1Cc1ccc(-c2ccc(Cl)c(C(=O)NCC3CC3)c2)o1` (stereo not shown) [NG-01-72R, 3-(4-((5-(4-Chloro-3-((cyclopropylmethyl)carbamoyl)phenyl)furan-2-yl)methyl)-3-methyl-5-oxo-4,5-dihydro-1H-pyrazol-1-yl)benzoic acid]: 42 µM.

`CC1=NN(c2cccc(C(=O)O)c2)C(=O)/C1=C\c1ccc(-c2ccc(Cl)c(C(=O)O)c2)s1` [NG-03-224, (Z)-5-(5-((1-(3-Carboxyphenyl)-3-methyl-5-oxo-1,5-dihydro-4H-pyrazol-4-ylidene)methyl)thiophen-2-yl)-2-chlorobenzoic acid] had an IC50 of 30 µM. This IC50 and that of the molecule before are within 1.5-fold of each other. Next, `COc1cccc(NC(=O)c2ccc(/C=C3\C(=O)N(c4cccc(C(=O)O)c4)N=C3C)o2)c1` [NG-02-162/ NG-02-162C, (Z)-3-(4-((5-((3-methoxyphenyl)carbamoyl)furan-2-yl)methylene)-3-methyl-5-oxo-4,5-dihydro-1H-pyrazol-1-yl)benzoic acid]: 35 µM. Molecule `CC1=NN(c2cccc(C(=O)O)c2)C(=O)/C1=C\c1ccc(-c2ccc(Cl)c(C(=O)NC3CC3)c2)o1` [Compound 34f, (Z)-3-(4-((5-(4-Chloro-3-(cyclopropylcarbamoyl)phenyl)furan-2-yl)methylene)-3-methyl-5-oxo-4,5-dihydro-1H-pyrazol-1-yl)benzoic acid] gave an IC50 of 32 µM.
